# Patent publication US20040077659A1, “Method for treating ppar gamma mediated diseases or conditions” (priority 2003, published 2004)
# Legend:
# [1] = system: Zucker Diabetic Fatty rats (ZDF fa/fa); test: Diabetic rat study, 28-day; format: in vivo; parameters: total serum protein: unit not given here; conditions: for glycemic control / insulin: 28-day treatment, relative to vehicle treatment; for hematocrit (% RBC volume): vehicle 49±0.3; for hemodilution as indicated by hematocrit and total serum protein: day 28, versus vehicle group
# Description: The five PPAR pan agonist molecules prepared above were administered by oral gavage to genetically altered rodents that simulate the human disease of type 2 Diabetes Mellitus (Zucker Diabetic Fatty rats (ZDF fa/fa)). As a control a PPAR gamma agonist 2-[2-(methoxycarbonyl)anilino]-3-{4-[2-(5-methyl-2-phenyl-1,3-oxazol-4-yl)ethoxy]phenyl}propanoic acid was also tested. This PPAR gamma agonist can be prepared as described in Cobb, J. E., et al., N-(2-Benzoylphenyl)-L-tyrosine PPARg agonists. 3. Structure-activity relationship and optimization of the N-aryl substituent., J. Med. Chem. 1998, 41, 5055-5069. As an additional control, one group was treated with vehicle alone.
# While all five hPPAR pan agonist molecules were evaluated in the above study for 7 days, one of these pan agonists, 2-{4-[({4-{[4-(4-methoxyphenyl)-1-piperazinyl]methyl}-2-[4-(triflouromethyl)phenyl]-1,3-thiazol-5-yl}methyl)sulfanyl]phenoxy}-2-methylpropanoic acid, and the PPAR gamma agonist were tested for 28 days. Animals were treated earlier than in the 7-day study, before the development of diabetes as measured by increased plasma glucose. Measurements were obtained at 7 day intervals and the PPAR pan agonist molecule (♦) was compared to vehicle control (*) and the PPAR gamma agonist (□). [formula] [formula] [formula]
# [2] = system: Cynomolgus monkeys; test: Primate study, edema and hemodilution; format: in vivo, Cynomolgus monkey; conditions: oral once daily for 63 or 64 days, 1, 5 and 15 mg/kg
# Description: In addition to the above rat studies, a primate study was conducted using the PPAR pan agonist 2-{4-[({4-{[4-(4-methoxyphenyl)-1-piperazinyl]methyl}-2-[4-(trifluoromethyl)phenyl]-1,3-thiazol-5-yl}methyl)sulfanyl]phenoxy}-2-methylpropanoic acid. In that study, male and female Cynomolgus monkeys were dosed orally once daily for 63 or 64 days with doses projected to provide greater than 3× the serum concentration needed to lower insulin resistance and serum glucose in diabetic patients. The animals were dosed at 0 mg/kg (control), 1 mg/kg, 5 mg/kg, and 15 mg/kg of the PPAR pan agonist. The animals were carefully observed for signs of edema and or hemodilution. Methods of evaluation during the in-life portion of the study included visual observation of swelling, particularly around the eyes and or genitals by a Board Certified pathologist, as well as evaluation of clinical hematology (red blood cell volume) and clinical chemistries (total serum protein) as evidence of hemodilution. At necropsy, careful examination for gross evidence of edema was based on palpation and careful examination of all issue. Special emphasis was given to the gross evaluation of subcutaneous tissue, all fat stores, lungs and all serous cavities.
SMILES,body weight increase from the start of dosing ([1]; 28-day study) [%],glycemic control [1],insulin [1],hematocrit (% RBC volume) ([1]; after 28 days),hemodilution as indicated by hematocrit and total serum protein [1],edema in tissues examined histologically [2],signs of edema or hemodilution during in-life or necropsy portions [2],body weight gain compared with vehicle treated animals ([1]; 28-day study),"total serum protein ([1]; after 28 days, vehicle 7.5±0.2)"
"COC(=O)c1ccccc1NC(Cc1ccc(OCCc2nc(-c3ccccc3)oc2C)cc1)C(=O)O (stereo not shown) [PPAR gamma agonist, 2-[2-(methoxycarbonyl)anilino]-3-{4-[2-(5-methyl-2-phenyl-1,3-oxazol-4-yl)ethoxy]phenyl}propanoic acid, reference compound]",120,maintained glycemic control,lowered insulin,43±1.0,evident,–,–,–,–
"COc1ccc(N2CCN(Cc3nc(-c4ccc(C(F)(F)F)cc4)sc3CSc3ccc(OC(C)(C)C(=O)O)cc3)CC2)cc1 [PPAR pan agonist, 2-{4-[({4-{[4-(4-Methoxyphenyl)-1-piperazinyl]methyl}-2-[4-(trifluoromethyl)phenyl]-1,3-thiazol-5-yl}methyl)sulfanyl]phenoxy}-2-methylpropanoic acid]",–,maintained glycemic control,lowered insulin,48±0.9,not significantly different from the vehicle group,No evidence of edema,no signs or suggestions of edema or hemodilution,not significantly different from the vehicle treated animals,7.2±0.2
